Measurements from patent publication US5990096A (priority 1992, dated 1999).

Key:
[1] = Intratumour injection study: radioactivity remaining in normal skin; assay type: in vivo, Fisher 344 rat; details: injection into normal skin
Method: (§1) 1. These drugs were administrated by intratumor injection. (right frank)
At the same time, injection into normal skin (left frank) was carried out similarly.
(§2) Group A:H-5-FU 5 mg/kg+saline/0.3 ml (i.t.)
(§3) B:H-5-FU 5 mg/kg+HA 15 mg/kg/0.3 ml (s.c.)
(§4) 3H-FU without or with HA was injected as a single dose (0.3 ml) into the center of the tumor (on the right frank) with a 30 gause needle. At the same time, injection into normal skin (on the left frank) was carried out similarly.
(§5) The tumor and skin was then removed at different times (1 h,6 hr) for counting radioactivity of the remaining content in the tissue.

Fisher Bladder Carcinoma = experiment: Intratumour injection study: radioactivity remaining in tumor tissue; assay type: in vivo, Fisher 344 rat; details: intratumor injection
Method: as §1, §2, §3, §4, §5

[2] = in vivo

Compound	Radioactivity clearance from normal tissue (skin) [1]	Radioactivity retention in tumor tissue (Fisher Bladder Carcinoma)	Side effects [2]
O=c1[nH]cc(F)c(=O)[nH]1 [Formulation 3H-5FU, 5-Fluoracil]	immediately disappeared	immediately disappeared	
O=C(O)Cc1ccccc1Nc1c(Cl)cccc1Cl [Oral diclofenac acid]			gastritis
